Results: patent US4499093A, “Interferon induction method” (Dso "Pharmachim", priority 1982, dated 1985)
Where “and” joins values, the source holds several entries; their conditions need not be identical. Equal entries are not always repeated. Structures can show the parent of a compound that is named as a salt.

Experiments:
[1] = internal / in vivo, background; cited from earlier work
[2] = acute toxicity (LD50); design: species or system white mice; details: mouse, in vivo; intravenous; read-out: single LD50
[3] = system: Semliki virus; design: species or system white mice; details: mouse, in vivo
[4] = system: Herpes simplex 1 virus; design: species or system white mice; details: mouse, in vivo
[5] = system: influenza virus A; test: influenza virus A experimental infection in white mice; format: in vivo; details: oral or intraperitoneal single dose 24 h before, 24 or 72 h after inoculation
[6] = system: Mouse peritoneal leucocytes
Description: (§1) In monolayer cellular cultures (L-cells, mouse embryonal fibroblasts, human diploid embryonal pulmonary fibroblasts), the interferon titre is measured and the antiviral resistance is simultaneously determined. […] Incubation of the cultures is carried out for 24 hours at 37° C.; The culture medium after determining its cytotoxicity microscopically is collected for the interferon titre measurement. The cells are rinsed in Hanks' saline solution and inoculated by 100 TCID50 virus of the vesicular stomatite (Indiana strain). The cytopathic effect and the infectious virus yield are specified the basis of which the state of the antiviral resistancy is determined.
(§2) The interferon titre is determined as follows: by the plaque-inhibition method in L-cells or in human embryonal diploid fibroblasts using the vesicular stomatite virus (Indiana strain) by a detector virus; by the cytopathic effect inhibition method of the same virus (using human embryonal diploid fibroblasts). It is expressed in IU/ml by comparing the reference preparations of mouse or human interferon.

[7] = system: L-cells
Description: as §1, §2

[8] = system: Human diploid embryonal fibroblasts
Description: as §1, §2

[9] = system: Mouse peritoneal leucocytes; test: cells; details: Leucocyte, read-out: MinIFN-IC (minimum interferon-inducing concentration)
Description: as §1, §2

[10] = system: L-cells; test: cells; details: Mus musculus, read-out: MinIFN-IC (minimum interferon-inducing concentration)
Description: as §1, §2

[11] = system: Human diploid embryonal fibroblasts; test: cells; details: Fibroblast, read-out: MinIFN-IC (minimum interferon-inducing concentration)
Description: as §1, §2

[12] = system: some DNA and RNA-containing viruses; details: cellular cultures, background; cited from earlier work
[13] = system: serum interferon; test: serum interferon titre in human volunteers; design: average geometrical interferon titre: dose or concentration left out as unconfirmed
Description: as §2

[14] = system: Mouse embryonal fibroblasts; test: interferon induction in mouse embryonal fibroblasts
Description: as §1, §2

[15] = system: serum interferon; test: interferon-inducing activity in vivo in white mice (serum interferon titre)
Description: Serum samples for measuring the interferon titre are taken on the 6th, 12th, 24th, 48th, 72nd and 96th hour (mixed serum sample of minimum 8 animals).
as §2

[16] = intravenous, 0.1 mg/kg, 48th hour

Molecule: CCN(CC)CCOc1ccc2c(c1)C(=O)c1cc(OCCN(CC)CC)ccc1-2 [tilorone-hydrochloride]
- toxicity [1]: toxic and unsuitable for clinical application

Molecule: OCCN(CCO)c1nc(N2CCCCC2)c2nc(N(CCO)CCO)nc(N3CCCCC3)c2n1 [Dipyridamole, 2,6-bis (diethanolamino)-4,8-dipiperidinopyramido [5,4-d]pyrimidine]
- LD50 [2]: 150 mg/kg
- Lethality % M ± m [3]: 30.0 ± 15.27% and 40.0 ± 16.32%
- Lethality No. [3]: 3/10 and 4/10
- Mean survival time [3]: 22.6 ± 3.77 days and 20.7 ± 3.82 days
- Protection coefficient [3]: 2.4 and 1.8
- antiviral effect in oral application vs intraperitoneal [3]: much stronger
- protective effect [3]: marked protective effect
- t [3]: 3.02 and 2.64
- Lethality % M ± m [4]: 55.0 ± 11.41%
- Lethality No. [4]: 11/20
- Mean survival time [4]: 17.3 ± 2.64 days
- Protection coefficient [4]: 1.81
- antiviral effect in oral application vs intraperitoneal [4]: much stronger
- protective effect [4]: marked protective effect
- t [4]: 3.94
- protective effect [5]: marked protective effect
- Maximum interferon titre [6]: ≥ 256 IU/ml
- OptINF-IC (optimum interferon-inducing concentration) [6]: 100-1000
- interferon titre compared with double-stranded RNA of phage f2 [6]: higher than that induced by double-stranded RNA of phague f2 of E. coli
- optimum interferon-inducing concentration [6]: 100 µM
- Maximum interferon titre [7]: ≥ 128 IU/ml
- OptINF-IC (optimum interferon-inducing concentration) [7]: 30-300 micromol/1
- induced interferon titre [7]: over 128 IU/ml
- induced interferon titres [7]: exceed 128 IU/ml
- interferon production compared with poly I:C [7]: markedly exceeds the interferon production of poly I:C
- Maximum interferon titre [8]: 16-32
- OptINF-IC (optimum interferon-inducing concentration) [8]: 100-300 micromol/1
- minimal effective concentration [9]: 3 µM
- minimal effective concentration [10]: 10 µM
- minimal effective concentration [11]: 10 µM
- antiviral effect in in vitro testing [12]: antiviral effect
- Mean serum interferon titre, positive responders ([13]; 0 hours after administration (baseline)): 5.2 ± 1.7 IU/ml
- subjects with marked raising of serum interferon level ([13]; 100 mg single oral dose, 20 men and women, 24th and 48th hour): 80%
- Mean serum interferon titre, positive responders ([13]; 24-48 hours after administration): 1069.0 ± 479.7 IU/ml
- increase of average geometrical interferon titres vs initial level ([13]; 24-48 hours, oral): Over 200 time
- average geometrical interferon titre ([13]; 24-48 hours, oral single doses as printed): 1069.0±479.7 IU/ml
- average geometrical interferon titre, initial level ([13]; initial level before dipyridamole): 5.2±1.7 IU/ml
- treated subjects with marked interferon production ([13]; oral, single doses (1-2 mg/kg)): 80%
- OptINF-IC (optimum interferon-inducing concentration) [14]: 300 micromol/1
- minimal effective concentration ([14]; Mus musculus, Fibroblast, read-out: MinIFN-IC (minimum interferon-inducing concentration)): 100 µM
- Maximum interferon titre ([14]; induced by OptINF-IC): 16 IU/ml
- preservation of high serum interferon levels ([15]; even 96 hours after administration): relatively continuous preservation of the high interferon levels
- time of peak interferon levels ([15]; intraperitoneal, 16.7 mg/kg): 24 to 48 h
- maximum titres / peak levels ([15]; intraperitoneal, 16.7 mg/kg, 24-48th hour): 256 IU/ml
- interferon concentrations until the 120th hour ([15]; intraperitoneal, 16.7 mg/kg, until 120th hour): Marked concentrations
- interferon-inducing activity of lower doses ([15]; intraperitoneal, lower doses, under 0.1 mg/kg inclusive): lower but better marked activity
- effective doses ([15]; intraperitoneal, "or more"): 0.1 to 16.7 mg/kg
- effective doses ([15]; intravenous): 0.01 to 50 mg/kg
- Interferon titre in serum ([15]; intravenous, 0.01 mg/kg, 72nd hour): 16 IU/ml
- Interferon titre in serum ([15]; intravenous, 0.05 mg/kg, 24th hour): < 4 IU/ml
- Interferon titre in serum ([15]; intravenous, 0.05 mg/kg, 48th hour): 64 IU/ml
- Interferon titre in serum ([15]; intravenous, 0.05 mg/kg, 72nd hour): 32 IU/ml
- Interferon titre in serum ([15]; intravenous, 0.1 mg/kg, 6th hour): ≤ 4 IU/ml
- Interferon titre in serum ([15]; intravenous, 0.1 mg/kg, 12th hour): ≤ 4 IU/ml
- Interferon titre in serum ([15]; intravenous, 0.1 mg/kg, 24th hour): ≤ 4 IU/ml
- Interferon titre in serum [15, 16]: 128 IU/ml
- maximum titres [15, 16]: 128 IU/ml
- Interferon titre in serum ([15]; intravenous, 0.1 mg/kg, 72nd hour): 32 IU/ml
- Interferon titre in serum ([15]; intravenous, 0.2 mg/kg, 24th hour): ≤ 4 IU/ml
- Interferon titre in serum ([15]; intravenous, 0.2 mg/kg, 48th hour): 32 IU/ml
- Interferon titre in serum ([15]; intravenous, 0.2 mg/kg, 72nd hour): 32 IU/ml
- Interferon titre in serum ([15]; intravenous, 0.6 mg/kg, 6th hour): < 4 IU/ml
- Interferon titre in serum ([15]; intravenous, 0.6 mg/kg, 12th hour): 8 IU/ml
- Interferon titre in serum ([15]; intravenous, 0.6 mg/kg, 24th hour): 32 IU/ml
- Interferon titre in serum ([15]; intravenous, 0.6 mg/kg, 48th hour): 16 IU/ml
- Interferon titre in serum ([15]; intravenous, 0.6 mg/kg, 72nd hour): 16 IU/ml
- Interferon titre in serum ([15]; intravenous, 1.8 mg/kg, 12th hour): 16 IU/ml
- Interferon titre in serum ([15]; intravenous, 1.8 mg/kg, 24th hour): 16 IU/ml
- Interferon titre in serum ([15]; intravenous, 1.8 mg/kg, 72nd hour): 8 IU/ml
- Interferon titre in serum ([15]; intravenous, 5.5 mg/kg, 12th hour): 16 IU/ml
- Interferon titre in serum ([15]; intravenous, 5.5 mg/kg, 24th hour): 16 IU/ml
- Interferon titre in serum ([15]; intravenous, 17.7 mg/kg, 12th hour): 32 IU/ml
- Interferon titre in serum ([15]; intravenous, 17.7 mg/kg, 24th hour): 16 IU/ml
- Interferon titre in serum ([15]; intravenous, 50.0 mg/kg, 12th hour): 8 IU/ml
- Interferon titre in serum ([15]; intravenous, 50.0 mg/kg, 24th hour): 8(4) IU/ml
- time of maximum interferon levels ([15]; intravenous, higher doses than 0.1 mg/kg): 12 to 24 h
- time of maximum titres ([15]; oral): 24 to 48 h
- serum interferon level at 12th hour ([15]; oral, 6.25-100 mg/kg, 12th hour): 128-256 IU/ml
- peak serum interferon values ([15]; oral, 12.5 or 25 mg/kg, 48th hour): 4096-8192 IU/ml
- maximum serum interferon titres ([15]; oral, 24-48 hour): 4096-8192 IU/ml
- interferon levels at 120th hour ([15]; oral): marked interferon levels in the blood
- interferon levels at 120th hour ([15]; oral, listed as dipyridamole): higher than those in the control (placebo) group
- serum interferon level at 12th hour ([15]; oral, single doses, 12th hour): 128-256 IU/ml

Molecule: poly I:C
- toxicity [1]: toxic internally
